# Laboratory results as given in article PMC8151276, “An Integrated Approach toward NanoBRET Tracers for Analysis of GPCR Ligand Engagement” (Molecules, 2021).
# Molecular target: T1, F2RL2 (Homo sapiens, UniProt O00254)
# T1 construct: purchased Promega (in-house HiBiT-GPCR construct library, NanoBRET)
# T1 sequence (O00254 22-374): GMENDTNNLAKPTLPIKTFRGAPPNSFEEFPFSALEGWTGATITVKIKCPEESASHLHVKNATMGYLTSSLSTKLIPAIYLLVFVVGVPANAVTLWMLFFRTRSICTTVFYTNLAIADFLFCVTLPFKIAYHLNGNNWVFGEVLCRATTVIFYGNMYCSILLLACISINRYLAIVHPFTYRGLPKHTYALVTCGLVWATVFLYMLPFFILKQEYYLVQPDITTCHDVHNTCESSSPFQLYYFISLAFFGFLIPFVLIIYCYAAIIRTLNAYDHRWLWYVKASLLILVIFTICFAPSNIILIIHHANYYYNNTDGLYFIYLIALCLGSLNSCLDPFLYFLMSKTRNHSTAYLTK
# Assay: NanoBRET screen HiBiT-F2RL2 in HEK293
# Format: binding
# Experimental: Each tracer candidate was screened across the entire library of HiBiT-GPCR constructs using NanoBRET as the detection modality. As depicted in Figure 4A, the specificity of interactions was evaluated through decrease in BRET due to competitive displacement of a bound tracer by excess parental compound. Each tracer was analyzed for binding to each HiBiT-GPCR fusion in the absence and in the presence of competing parental compound. Briefly, HEK293 cells were transfected with HiBiT-GPCR constructs diluted into promoterless DNA to reduce expression and maximize translocation to the cell surface. Each tracer candidate was then screened at concentrations of 1 μM and 0.1 μM across cells expressing these fusions. Cells were treated for 1.5 h with tracer either alone or in the presence of 20 μM competing parental compound (i.e., control). BRET was measured upon addition of purified LgBiT and subsequent complementation with HiBiT genetically fused to a GPCR. The specificity of interactions was assessed through a decrease in BRET signal due to competitive displacement of the bound tracer. To further gauge the robustness of these interactions, the fold response over the control (i.e., BRETtracer/BRETcontrol) was calculated. We chose a 1.5-fold response, which translates to ≥7-fold signal over noise as the minimal threshold required to score an interaction as positive. […]. Below we highlight the screening results obtained for our exemplary fluorescent tracers based on Clozapine, Amitriptyline and AZD1283.
# HiBiT-GPCR DNA constructs were diluted in 10 mM Tris pH 8 to a final concentration of 0.01 μg/μL, arrayed in 96-well plates and stored at −20 °C. For transfection, HEK293 cells were suspended in Opti-MEM (without phenol red) supplemented with 2% fetal bovine serum (Seradigm) and 100 units/mL penicillin–streptomycin (Gibco) at a final concentration of 220,000 cells/mL and dispensed into white 96-well plates at 90 μL/well. Subsequent transfections and screens were carried using an Agilent Bravo Automated Liquid Handling Platform. First, the 96-well HiBiT DNA arrays were diluted 25-fold in Opti-MEM (without serum or phenol red) to a final concentration of 0.0004 μg/μL and 20 μL of the diluted DNAs were transferred into new 96-well plates. Next, promoterless carrier DNA (1 μg/μL) was diluted 25-fold (0.04 μg/μL) and then dispensed into the diluted arrays at 20 μL/well. Following brief mixing, Viafect transfection reagent (Promega) diluted 16-fold into Opti-MEM was dispensed into the plates at 40 μL/well. After mixing by pipetting, plates were incubated for 10 min on the pipetting station deck. The DNA-transfection reagent complexes were then added to plates containing cells. To facilitate the screen, 10 μL of DNA-transfection reagent complexes were added in duplicates to the top 4 and bottom 4 rows, resulting in two identical 48-well arrays per plate. Plates with transfected cells were incubated for 18–20 h at 37 °C/5% CO2. A screen of each tracer across the entire library using two different concentrations requires duplicate plates of transfected cells. Depending on the number of tracers being screened, transfections can be scaled up using the same ratios. The next day, for each tracer, four 20× screening solutions in tracer dilution buffer (Promega) were prepared: two duplicates at final concentration of 20 μM and two duplicates at a final concentration of 2 μM. A competing unmodified compound was added to one of each duplicate at a final concentration of 400 μM. The four resulting solutions were diluted 4-fold in Opti-MEM without serum or phenol red to generate 5× solutions (5 µM and 0.5 µM tracer +/− 100 μM competing compound). To screen the library, a BioTek MultiFlo FX liquid dispenser was used to dispense 22.5 µL of tracer solution to the top 4 rows and 22.5 µL tracer + competing compound solution to the 4 bottom rows. Plates were briefly mixed on an orbital shaker and incubated for 1.5 h at room temperature. […]
Compound,"NanoBRET Fold Response (F2RL2, tracer 0.1μM)","NanoBRET Fold Response (F2RL2, tracer 1μM)",also measured
CN1CCN(C2=Nc3cc(Cl)ccc3Nc3ccc(CNC(=O)CCOCCOCCOCCOCCNC(=O)CCc4ccc5n4[B-](F)(F)[N+]4=C(c6ccc[nH]6)C=CC4=C5)cc32)CC1 [Clozapine-b-2-NB590],–,–,"NanoBRET Fold Response (F2RL2, 0.1μM tracer): 1.01; NanoBRET Fold Response (F2RL2, 1μM tracer): 1.02"
CN(C)CCC=C1c2ccccc2CCc2ccc(C(=O)NCCNC(=O)CCOCCOCCOCCOCCNC(=O)CCc3ccc4n3[B-](F)(F)[N+]3=C(c5ccc[nH]5)C=CC3=C4)cc21 [Amitriptyline-b-2-NB590],–,–,"NanoBRET Fold Response (tracer at 0.1μM): 1.16; NanoBRET Fold Response (tracer at 1μM, listed as amitriptyline-b-2-NB590): 0.92"
CCOC(=O)c1cc(C#N)c(N2CCC(C(=O)NS(=O)(=O)Cc3ccccc3/C=C/C(=O)NCCNC(=O)CCc3ccc4n3[B-](F)(F)[N+]3=C(c5ccc[nH]5)C=CC3=C4)CC2)nc1C [AZD1283-1-NB590],–,–,"NanoBRET Fold Response (F2RL2, 0.1μM): 1.01; NanoBRET Fold Response (F2RL2, 1μM): 1.12"
CC(C)N(CC[C@H](c1ccccc1)c1cc(CCNC(=O)CCOCCOCCOCCOCCNC(=O)CCc2ccc3n2[B-](F)(F)[N+]2=C(c4ccc[nH]4)C=CC2=C3)ccc1O)C(C)C [Tolterodine-2-NB590],1.02,1.04,–
CC(C)N(CC[C@H](c1ccccc1)c1cc(CCNC(=O)c2ccc(CNC(=O)CCc3ccc4n3[B-](F)(F)[N+]3=C(c5ccc[nH]5)C=CC3=C4)cc2)ccc1O)C(C)C [Tolterodine-BZ-NB590],1.01,1.04,–
O=C(CCOCCOCCOCCOCCNC(=O)CCc1ccc2n1[B-](F)(F)[N+]1=C(c3ccc[nH]3)C=CC1=C2)NCCCN1CCN(C2=Nc3ccccc3Oc3ccc(Cl)cc32)CC1 [Loxapine-a-2-NB590],1.03,1.12,–
CN1CCN(C2=Nc3cc(Cl)ccc3N(CC(=O)NCCOCCOCCOCCOCCNC(=O)CCc3ccc4n3[B-](F)(F)[N+]3=C(c5ccc[nH]5)C=CC3=C4)c3ccccc32)CC1 [Clozapine-c-2-NB590],–,–,"NanoBRET Fold Response (F2RL2, 0.1μM tracer): 1.20; NanoBRET Fold Response (F2RL2, 1μM tracer): 0.97"
CN(C)CCC=C1c2ccccc2CCc2ccc(C(=O)NCCNC(=O)CCOCCOCCOCCOCCNC(=O)CCc3ccc4n3[B-](F)(F)[N+]3=C(c5ccc[nH]5)C=CC3=C4)cc21 [Amitriptyline-a-2-NB590],–,–,NanoBRET Fold Response (tracer at 0.1μM): 1.03; NanoBRET Fold Response (tracer at 1μM): 0.99
Cc1nc2n(c(=O)c1CCN1CCC(c3noc4cc(F)ccc34)CC1)CCCC2OC(=O)NCCOCCOCCOCCOCCNC(=O)CCc1ccc2n1[B-](F)(F)[N+]1=C(c3ccc[nH]3)C=CC1=C2 (stereo not shown) [Risperidone-2-NB590],0.94,1.08,–
COc1ccc2[nH]c(-c3ccc(CNC(=O)CCOCCOCCOCCOCCNC(=O)CCc4ccc5n4[B-](F)(F)[N+]4=C(c6ccc[nH]6)C=CC4=C5)cc3)c(CCNC(C)=O)c2n1 [AzomelatoninICO9-2-NB590],–,–,NanoBRET Fold Response (0.1μM tracer): 0.86; NanoBRET Fold Response (1μM tracer): 0.99
COc1ccccc1N1CCN(CCCCN2C(=O)c3ccc(CNC(=O)CCOCCOCCOCCOCCNC(=O)CCc4ccc5n4[B-](F)(F)[N+]4=C(c6ccc[nH]6)C=CC4=C5)cc3C2=O)CC1 [NAN-190-2-NB590],1.02,1.01,–
O=C(CCc1ccc2n1[B-](F)(F)[N+]1=C(c3ccc[nH]3)C=CC1=C2)NCCOCCOCCNC(=O)OCCOCCN1CCN(C2=Nc3ccccc3Sc3ccccc32)CC1 [Quetiapine-a-2-NB590],1.06,0.89,–
O=C(CCOCCOCCOCCOCCNC(=O)CCc1ccc2n1[B-](F)(F)[N+]1=C(c3ccc[nH]3)C=CC1=C2)NCCCN1CCN(C2=Nc3cc(Cl)ccc3Nc3ccccc32)CC1 [Clozapine-a-2-NB590],–,–,"NanoBRET Fold Response (F2RL2, 0.1μM tracer): 1.02; NanoBRET Fold Response (F2RL2, 1μM tracer): 1.20"
N#CN=C(NCCCOc1cccc(CN2CCCCC2)c1)NCCNC(=O)CCOCCOCCOCCOCCNC(=O)CCc1ccc2n1[B-](F)(F)[N+]1=C(c3ccc[nH]3)C=CC1=C2 [Aminopotentidine-2-NB590],0.95,1.02,–
O=C(CCc1ccc2n1[B-](F)(F)[N+]1=C(c3ccc[nH]3)C=CC1=C2)NCc1ccc(C(=O)NCCOCCOCCNCC(O)COc2cccc3ccccc23)cc1 (stereo not shown) [Propranolol-3-NB590],–,–,"NanoBRET Fold Response (F2RL2, 0.1μM): 0.99; NanoBRET Fold Response (F2RL2, 1μM): 1.03"
O=C(CCc1ccc2n1[B-](F)(F)[N+]1=C(c3ccc[nH]3)C=CC1=C2)NCc1ccc(C(=O)NCCOCCC(=O)N[C@@H]2CC[C@@]3(O)[C@H]4Cc5ccc(O)c6c5[C@@]3(CCN4CC3CC3)[C@H]2O6)cc1 [Naltrexone-3-NB590],1.07,1.02,–
COc1ccccc1N1CCN(CCCCN2C(=O)c3ccc(CNC(=O)CCOCCNC(=O)c4ccc(CNC(=O)CCc5ccc6n5[B-](F)(F)[N+]5=C(c7ccc[nH]7)C=CC5=C6)cc4)cc3C2=O)CC1 [NAN-190-3-NB590],1.10,0.95,–
Cc1cc2c(s1)Nc1ccccc1N=C2N1CCN(CCCNC(=O)CCOCCOCCOCCOCCNC(=O)CCc2ccc3n2[B-](F)(F)[N+]2=C(c4ccc[nH]4)C=CC2=C3)CC1 [Olanzapine-a-2-NB590],0.97,1.01,–
CCCn1c(=O)c2[nH]c(-c3ccc(OCC(=O)NCCNC(=O)CCOCCNC(=O)c4ccc(CNC(=O)CCc5ccc6n5[B-](F)(F)[N+]5=C(c7ccc[nH]7)C=CC5=C6)cc4)cc3)nc2n(CCC)c1=O [XAC-3-NB590],0.95,1.04,–
COc1ccc2c(n1)c(CCNC(C)=O)cn2CCNC(=O)CCc1ccc2n1[B-](F)(F)[N+]1=C(c3ccc[nH]3)C=CC1=C2 [Azamelatonin-1-NB590],–,–,NanoBRET Fold Response (0.1μM tracer): 1.00; NanoBRET Fold Response (1μM tracer): 1.03
